According to patent US20250360205A1, “NOD1 MODULATORS AND USES THEREOF” (Academia Sinica, priority 2022, published 2025):

Molecular target: T1, NOD1 (Homo sapiens, UniProt Q9Y239)
T1 construct: host or cells: HEK-Blue hNOD1 cells (HEK293-derived, with NF-κB-inducible SEAP reporter)
T1 sequence (Q9Y239 1-953): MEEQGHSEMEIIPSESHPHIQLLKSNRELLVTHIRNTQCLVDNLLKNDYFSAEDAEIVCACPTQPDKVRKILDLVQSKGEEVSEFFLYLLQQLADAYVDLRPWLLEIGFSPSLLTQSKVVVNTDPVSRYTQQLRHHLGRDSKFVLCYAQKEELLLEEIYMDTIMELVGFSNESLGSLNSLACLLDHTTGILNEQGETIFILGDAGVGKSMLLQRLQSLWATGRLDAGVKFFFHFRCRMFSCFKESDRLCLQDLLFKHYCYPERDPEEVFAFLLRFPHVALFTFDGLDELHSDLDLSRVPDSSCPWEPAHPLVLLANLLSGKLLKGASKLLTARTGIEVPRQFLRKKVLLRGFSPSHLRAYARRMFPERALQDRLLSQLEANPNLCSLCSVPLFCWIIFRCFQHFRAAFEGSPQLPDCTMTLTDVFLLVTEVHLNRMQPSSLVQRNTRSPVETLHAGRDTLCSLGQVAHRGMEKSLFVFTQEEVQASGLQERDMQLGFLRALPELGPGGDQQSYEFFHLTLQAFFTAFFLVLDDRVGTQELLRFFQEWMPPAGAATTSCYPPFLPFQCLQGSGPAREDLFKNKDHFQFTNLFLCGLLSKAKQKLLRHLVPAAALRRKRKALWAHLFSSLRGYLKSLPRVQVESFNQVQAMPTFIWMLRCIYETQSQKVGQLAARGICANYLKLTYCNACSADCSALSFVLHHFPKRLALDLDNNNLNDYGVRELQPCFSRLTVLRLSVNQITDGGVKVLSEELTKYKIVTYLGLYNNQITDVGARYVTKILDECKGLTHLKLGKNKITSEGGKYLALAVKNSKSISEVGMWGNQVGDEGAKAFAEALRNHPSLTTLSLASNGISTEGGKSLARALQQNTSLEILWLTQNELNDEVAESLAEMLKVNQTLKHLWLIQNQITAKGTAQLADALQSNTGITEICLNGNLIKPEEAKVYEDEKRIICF
Assay: NOD1-induced NF-κB activation assay (SEAP reporter) in HEK-Blue hNOD1 cells
Type: cell-based
Details: 16 h; for NOD1 stimulation potency (NF-κB activity): 0.1 μM, FIG. 1, relative to iE-DAP, C12-iE-DAP, Tri-DAP
Description: Measurement of NOD1-induced NF-κB Activation Assay
HEK-Blue™ hNOD1 Cells (Invivogen; San Diego, CA, U.S.) were cultured in accordance with the manufacturer's instructions. HEK-Blue™ hNOD1 Cells was assayed for NF-κB transcriptional activity changes upon incubation (3.6×10^5 cells/mL) with iE-DAP, C12-iE-DAP, Tri-DAP (Invivogen, San Diego, CA, U.S.) and other NOD1 agonistic compounds (0.1-10 μM) for 16 h. Secreted embryonic alkaline phosphatase (SEAP) activity was determined in the supernatant in accordance with the manufacturer's instructions. An amount of 20 μL of SEAP-inducer compound or negative control was added to 180 μL of cells in HEK-Blue™ detection medium and incubated at 37° C. for 16 h. Absorbance was measured on a SpectraMax M5 (Molecular Devices, Sunnyvale, CA, U.S.) at 640 nm.

Compound	fold increase of NF-κB activity (1 μM, FIGS. 2 and 3) [fold]	NOD1 stimulation potency (NF-κB activity)
C[C@H](N)C(=O)N[C@H](CCC(=O)N[C@H](CO)CCC[C@@H](N)C(=O)O)C(=O)O [Compound 6]	20	
COc1ccc(CC(=O)NC(C)C(=O)NC(CCC(=O)NC(CO)CCCC(N)C(=O)O)C(=O)O)cc1 (stereo not drawn) [Compound 14f]		decreased dramatically
CC(NC(=O)Cc1ccc(-c2ccccc2)cc1)C(=O)NC(CCC(=O)NC(CO)CCCC(N)C(=O)O)C(=O)O (stereo not drawn) [Compound 14h]		decreased dramatically
